# Laboratory results published in patent US20230044787A1, “TRICYCLE DIHYDROIMIDAZOPYRIMIDONE DERIVATIVE, PREPARATION METHOD THEREOF, PHARMACEUTICAL COMPOSITION AND USE THEREOF” (priority 2019, published 2023).
# Target: T1, Lp-PLA2 (Homo sapiens, UniProt Q13093)
# T1 construct: aliquoted and thawed 40 μL of pooled human plasma was previously added; from tissue; host or cells: pooled human plasma
# T1 sequence (Q13093 22-441): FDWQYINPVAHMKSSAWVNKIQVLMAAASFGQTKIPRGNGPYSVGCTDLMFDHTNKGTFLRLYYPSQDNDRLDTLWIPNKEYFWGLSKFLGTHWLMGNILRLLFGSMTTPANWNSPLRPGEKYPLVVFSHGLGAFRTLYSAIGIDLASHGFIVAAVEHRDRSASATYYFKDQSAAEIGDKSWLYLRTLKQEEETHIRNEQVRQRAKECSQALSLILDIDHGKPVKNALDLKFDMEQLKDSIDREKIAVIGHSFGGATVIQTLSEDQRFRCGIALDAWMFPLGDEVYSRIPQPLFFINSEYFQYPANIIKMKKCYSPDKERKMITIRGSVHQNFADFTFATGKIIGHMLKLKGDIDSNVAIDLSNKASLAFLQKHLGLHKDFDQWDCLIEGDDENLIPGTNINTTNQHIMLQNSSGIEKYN
# Experiment: Lipoprotein-associated phospholipase A2 (Lp-PLA2) human plasma assay (Thio-PAF assay)
# Type: biochemical
# Conditions: Comparison of activity data (I); pooled human plasma, 2-thio-PAF substrate, 30-min pre-incubation
# Experimental: Lipoprotein-Associated Phospholipase A2 (Lp-PLA2) Human Plasma Assay
# The amount of sulfhydryl groups is continuously determined by the reaction with CPM (7-diethylamino-3-(4′-maleimidophenyl)-4-methylcoumarin), and the CPM is a maleimide of which fluorescence increases after Michael addition of sulfhydryl group. This assay can detect Lp-PLA2 activity in human plasma, as determined by specific inhibition of Lp-PLA2 inhibitors.
# Thio-PAF assay was performed as quenched 75 μL assay. Compound source plate was prepared for each compound by preparing 1:3 (by volume) serial dilutions in pure DMSO in a 96-well microplate. The compound on the source plate was diluted 20-fold by transferring 3 μL of the compound from the compound source plate into a 96-well microplate pre-added with 57 μL of assay buffer by Rainin multichannel pipette. The assay buffer described above consisted of 50 mM HEPES, pH 7.4, 150 mM NaCl, 1 mM CHAPS. 1 μL of the 20-fold diluted compound was transferred by Rainin multichannel pipette into a 96-well Greiner 655076 (black) microplate to which aliquoted and thawed 40 μL of pooled human plasma was previously added. The plate was shaken for 20 seconds on a microplate shaker to mix well. After a 30-min pre-incubation at room temperature, 10 μL of substrate solution was added to the 96-well Greiner 655076 (black) microplate by Rainin multichannel pipette, in which the substrate solution contained 2.5 mM 2-thio-PAF [from ethanol stock], 32 μM CPM [from DMSO stock], and 3.2 mM NEM (N-ethylmaleimide) [freshly prepared in DMSO per experiment] in assay buffer consisting of 50 mM HEPES, pH 7.4; 150 mM NaCl; 1 mM CHAPS. After 2 min, the reaction was quenched with […] of 5% trifluoroacetic acid (TFA) in water. The plate was centrifuged at 2000 rpm for 1 minute. The plate was read at ex:380/em:485 using a Biotek Synergy H1 (H1MF) microplate reader. IC50 data, curves and QC analysis were performed using GraphPad Prism 6.0 and Excel.
row,IC50 [nM],SMILES
1,63.3,"O=c1nc(OCc2cc(F)c(F)c(F)c2)cc2n1CC1COCCN21 (racemic) [Corresponding racemate of Example 123 in WO2016011930A1, reference compound]"

# Same assay, conditions: Lp-PLA2 human plasma assay (Thio-PAF), pooled human plasma, 30-min pre-incubation at room temperature
row,IC50 [nM],SMILES
1,4.4,O=c1nc(OCc2cc(F)c(Oc3ccnc(C(F)(F)F)c3)c(F)c2)cc2n1C[C@]13CO[C@H](CN21)C3 [Example 1]
2,2.6,"N#Cc1cc(COc2cc3n(c(=O)n2)CC24CCC(CC2)N34)ccc1Oc1cccc(C(F)(F)F)c1 [Example 2, 5-(((1-Oxo-7,8-dihydro-1H,6H,9H-6,8a-ethanopyrrolo[1′,2′:3,4]imidazo[1,2-c]pyrimidin-3-yl)oxy)methyl)-2-(3-(trifluoromethyl)phenoxy)benzonitrile]"
3,2.5,"O=c1nc(OCc2cc(F)c(Oc3ccc(Cl)c(C(F)(F)F)c3)c(F)c2)cc2n1C[C@]13CO[C@H](CN21)C3 [Example 4, (3S,11aR)-7-((4-(4-chloro-3-(trifluoromethyl)phenoxy)-3,5-difluorobenzyl)oxy)-3,4-dihydro-1H,9H,11H-3,11a-methanopyrimido[6′-,1′:2,3] imidazo[5,1-c][1,4]oxazin-9-one]"
4,4.2,"O=c1nc(OCc2cc(F)c(Oc3ccnc(OC(F)(F)F)c3)c(F)c2)cc2n1C[C@]13CO[C@H](CN21)C3 [Example 5, (3S,11aR)-7-((3,5-difluoro-4-((2-(trifluoromethoxy)pyridin-4-yl)oxy)benzyl)oxy)-3,4-dihydro-1H,9H,11H-3,11a-methanopyrimido[6′,1′:2,3] imidazo[5,1-c][1,4]oxazin-9-one]"
5,4.9,"O=c1nc(OCc2cc(F)c(Oc3ccnc(Cl)c3)c(F)c2)cc2n1C[C@]13CO[C@H](CN21)C3 [Example 6, (3S,11aR)-7-((4-((2-chloropyridin-4-yl)oxy)-3,5-difluorobenzyl)oxy)-3,4-dihydro-1H,9H,11H-3,11a-methanopyrimido[6′,1′:2,3] imidazo[5,1-c][1,4]oxazin-9-one]"
6,2.5,"O=c1nc(OCc2cc(F)c(Oc3cnc(C(F)(F)F)nc3)c(F)c2)cc2n1C[C@]13CO[C@H](CN21)C3 [Example 7, (3S,11aR)-7-((3,5-difluoro-4-((2-(trifluoromethyl)pyrimidin-5-yl)oxy)benzyl)oxy)-3,4-dihydro-1H,9H,11H-3,11a-methanopyrimido[6′,1′:2,3] imidazo[5,1-c][1,4]oxazin-9-one]"
7,4.9,O=c1nc(OCc2cc(F)c(Oc3cncc(C(F)(F)F)c3)c(F)c2)cc2n1C[C@]13CO[C@H](CN21)C3 [Example 8]
8,6.5,O=c1nc(OCc2cc(F)c(Oc3ccc(C(F)(F)F)nc3)c(F)c2)cc2n1C[C@]13CO[C@H](CN21)C3 [Example 9]
9,6.7,"Cc1cc(Oc2c(F)cc(COc3cc4n(c(=O)n3)C[C@]35CO[C@H](CN43)C5)cc2F)ccn1 [Example 10, (3S,11aR)-7-((3,5-difluoro-4-((2-methyl-pyridin-4-yl)oxy)benzyl)oxy)-3,4-dihydro-1H,9H,11H-3,11a-methanopyrimido[6′,1′:2,3] imidazo[5,1-c][1,4]oxazin-9-one]"
10,10.8,"Cn1cc(Oc2c(F)cc(COc3cc4n(c(=O)n3)C[C@]35CO[C@H](CN43)C5)cc2F)cn1 [Example 11, (3S,11aR)-7-((3,5-difluoro-4-((1-methyl-1H-pyrazol-4-yl)oxy)benzyl)oxy)-3,4-dihydro-1H,9H,11H-3,11a-methanopyrimido[6′,1′:2,3] imidazo[5,1-c][1,4]oxazin-9-one]"
11,4.3,N#Cc1cc(Oc2ccc(COc3cc4n(c(=O)n3)C[C@]35CO[C@H](CN43)C5)cc2F)cc(C(F)(F)F)c1 [Example 12]
12,4.6,"O=c1nc(OCc2ccc(Oc3ccc(Cl)c(C(F)(F)F)c3)c(F)c2)cc2n1C[C@]13CO[C@H](CN21)C3 [Example 14, (3S,11aR)-7-((4-(4-chloro-3-(trifluoromethyl)phenoxy)-3-fluorobenzyl)oxy)-3,4-dihydro-1H,9H,11H-3,11a-methanopyrimido[6′,1′:2,3] imidazo[5,1-c][1,4]oxazin-9-one]"
13,6.6,"O=c1nc(OCc2ccc(Oc3ccnc(C(F)(F)F)c3)cc2)cc2n1C[C@]13CO[C@H](CN21)C3 [Example 15, (3S,11aR)-7-((4-((2-(trifluoromethyl)pyridin-4-yl)oxy)benzyl)oxy)-3,4-dihydro-1H,9H,11H-3,11a-methanopyrimido[6′,1′:2,3] imidazo[5,1-c][1,4]oxazin-9-one]"
14,5.2,"O=c1nc(OCc2ccc(Oc3ccc(Cl)c(C(F)(F)F)c3)cc2)cc2n1C[C@]13CO[C@H](CN21)C3 [Example 16, (3S,11aR)-7-((4-(4-chloro-3-(trifluoromethyl)phenoxy)benzyl)oxy)-3,4-dihydro-1H,9H,11H-3,11a-methanopyrimido[6′,1′:2,3] imidazo[5,1-c][1,4]oxazin-9-one]"
15,32.4,"O=c1nc(OCc2ccc(Oc3ccc(F)c(C(F)(F)F)c3)nc2)cc2n1C[C@]13CO[C@H](CN21)C3 [Example 17, (3S,11aR)-7-((6-(4-fluoro-3-(trifluoromethyl)phenoxy)pyridin-3-yl)methoxy)-3,4-dihydro-1H,9H,11H-3,11a-methanopyrimido[6′,1′:2,3] imidazo[5,1-c][1,4]oxazin-9-one]"
16,3.5,"N#Cc1cc(COc2cc3n(c(=O)n2)C[C@]24CO[C@H](CN32)C4)ccc1Oc1ccc(Cl)c(C(F)(F)F)c1 [Example 18, 5-((((3S,11aR)-9-oxo-3,4-dihydro-1H,9H,11H-3,11a-methanopyrimido[6′,1′:2,3]imidazo[5,1-c][1,4]oxazin-7-yl)oxy)methyl)-2-(4-chloro-3-(trifluoromethyl)phenoxy) benzonitrile]"
17,3.9,"N#Cc1cc(COc2cc3n(c(=O)n2)C[C@]24CO[C@H](CN32)C4)ccc1Oc1cccc(C(F)(F)F)c1 [Example 19, 5-((((3S,11aR)-9-oxo-3,4-dihydro-1H,9H,11H-3,11a-methanopyrimido[6′,1′:2,3]imidazo[5,1-c][1,4]oxazin-7-yl)oxy)methyl)-2-(3-(trifluoromethyl)phenoxy) benzonitrile]"
18,6.8,N#Cc1cc(COc2cc3n(c(=O)n2)C[C@]24CO[C@H](CN32)C4)ccc1Oc1ccc(Cl)c(F)c1 [Example 20]
19,6.4,N#Cc1cc(COc2cc3n(c(=O)n2)C[C@]24CO[C@H](CN32)C4)ccc1Oc1ccc(C(F)(F)F)cc1 [Example 21]
20,3,"N#Cc1cc(COc2cc3n(c(=O)n2)C[C@]24CO[C@H](CN32)C4)ccc1Oc1ccnc(C(F)(F)F)c1 [Example 22, 5-((((3S,11aR)-9-oxo-3,4-dihydro-1H,9H,11H-3,11a-methanopyrimido[6′,1′:2,3]imidazo[5,1-c][1,4]oxazin-7-yl)oxy)methyl)-2-((2-(trifluoromethyl)pyridin-4-yl)oxy)benzonitrile]"
21,5,"O=c1nc(OCCc2ccc(Oc3ccc(Cl)c(C(F)(F)F)c3)cc2)cc2n1C[C@]13CO[C@H](CN21)C3 [Example 23, (3S,11aR)-7-(4-(4-chloro-3-(trifluoromethyl)phenoxy)phenethoxy)-3,4-dihydro-1H,9H,11H-3,11a-methanopyrimido[6′,1′:2,3] imidazo[5,1-c][1,4]oxazin-9-one]"
22,13.2,"O=c1nc(OCc2cc(F)c(F)c(F)c2)cc2n1C[C@]13CO[C@H](CN21)C3 [Example 24, (3S,11aR)-7-((3,4,5-trifluorobenzyl)oxy)-3,4-dihydro-1H,9H,11H-3,11a-methanopyrimido[6′,1′:2,3] imidazo[5,1-c][1,4]oxazin-9-one]"
